Assays:
[1] = system: N1-29 peptide of cat GnRH receptor; details: cited from earlier work
[2] = system: OC-3-VGH ovarian cancer cells; experiment: Quantitative RT-PCR gene regulation study; assay type: cell-based, human; details: quantitative RT-PCR after incubation with cancer cells
pituitary GnRH receptor [3] = experiment: Large scale proof of concept experiment, female rabbits (estradiol, LH); assay type: in vivo, rabbit
Method: (§1) With preliminary observations in single rabbit data, large scale rabbit experiments (n≥30) including negative controls were conducted with identical protocols. […] The data generated in each experimental group were analyzed statistically. The means and standard deviations of hormone levels from rabbits in each experimental group are presented in FIGS. 6-9 and corresponding selected statistical analyses and separate comparisons with those of the negative controls are presented in Table 1 to Table 4.
In the case of female rabbits, the serum concentrations of reproductive hormones including LH and estradiol (E2) of ten female rabbits were monitored and measured after a single subcutaneous injection with 1 mg/kg of GHR-106 (low dosage, n=3) or 3 mg/kg of GHR-106 (high dosage, n=3) on day 1, or after no injection (negative control, n=4). Serum E2 levels were determined starting on day 1 and ending on day 17, and serum LH levels were determined starting on day 1 and ending on day 13. The results of the estradiol (E2) profile are found in FIG. 8. The results of the LH profile are found in FIG. 9. Selected statistical analyses and separate comparisons with those of the negative controls for FIG. 8 and FIG. 9 are found in Table 3 and Table 4, respectively.
Target sequence in this assay (as listed by the source): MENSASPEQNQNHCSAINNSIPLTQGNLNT

pituitary GnRH receptor [4] = experiment: Serum LH and testosterone after single injection, single adult male rabbit; assay type: in vivo
Method: In the case of male rabbits, serum concentrations of reproductive hormones including luteinizing hormone (LH) and testosterone were monitored regularly following a single subcutaneous injection with 3 mg/kg of hGHR-106.
The serum LH and testosterone concentrations were determined, respectively, by EIA kits and plotted as a function of time during the day 1 to 30 time period.

human cancer cells = details: 24 to 72 hours co-incubation with 1-10 μg/ml; cited from earlier work
[5] = system: N1-29 synthetic oligopeptide of GnRH receptor from dog; experiment: Comparative binding ELISA on well-coated N1-29 oligopeptide (dog); details: vs unrelated RP215 negative control
Method: (§2) Therefore, comparative binding ELISA studies were performed to estimate the relative binding affinity between GHR-106 and microwell-coated N1-29 oligopeptides derived from human, dog and rabbit, respectively. The results of such binding studies are presented and compared in FIG. 2.
(§3) Unrelated RP215 monoclonal antibody was used as the negative control for any blank subtractions. Goat anti-human IgG labeled with alkaline phosphatase was used as the second antibody for signal detection. P-nitrophenyl phosphate was used as the substrate and monitored at 405 nm and double log plot presented.

pituitary GnRH receptor [6] = experiment: Proof-of-concept rabbit experiments overall (single and multi-rabbit); assay type: in vivo; details: single injection, 1 mg/kg or 3 mg/kg
Method: as §1

[7] = target: T1, N1-29 synthetic oligopeptide of GnRH receptor from humans (Homo sapiens, UniProt P30968); experiment: Comparative binding ELISA on well-coated N1-29 oligopeptide (human); details: vs unrelated RP215 negative control
T1 sequence (P30968 1-30): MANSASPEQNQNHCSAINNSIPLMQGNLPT
Method: as §2, §3

GnRHR = target: T2, GnRHR (Homo sapiens, UniProt P30968); experiment: Detection of GnRHR overexpression in a reference cell line; assay type: cell-based; details: compared with four commercially available antibodies
T2 sequence (P30968 1-328): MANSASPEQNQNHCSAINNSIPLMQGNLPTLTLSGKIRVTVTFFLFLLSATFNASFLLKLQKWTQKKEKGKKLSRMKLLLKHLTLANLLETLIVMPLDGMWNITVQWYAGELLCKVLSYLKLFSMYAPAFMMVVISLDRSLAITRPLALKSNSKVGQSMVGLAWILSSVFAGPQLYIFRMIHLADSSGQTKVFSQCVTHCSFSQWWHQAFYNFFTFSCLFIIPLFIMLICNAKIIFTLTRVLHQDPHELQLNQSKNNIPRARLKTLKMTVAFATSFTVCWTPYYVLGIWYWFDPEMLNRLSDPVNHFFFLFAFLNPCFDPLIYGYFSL
Method: In particular, the ability of GHR-106 to detect overexpression of GnRHR in a reference cell line is tested and compared with four different commercially available antibodies.

pituitary GnRH receptor [8] = experiment: Serum LH and estradiol after single injection, female rabbit; assay type: in vivo
Method: The hormonal profiles of serum luteinizing hormone (LH) and Estradiol (E2) in female rabbits were monitored upon a single injection with a 3 mg/kg dose of hGHR-106.

[9] = system: N1-29 peptide of rabbit GnRH receptor; details: cited from earlier work
pituitary GnRH receptor [10] = experiment: Large scale proof of concept experiment, male rabbits (testosterone, LH); assay type: in vivo, rabbit
Method: as §1
In the case of male rabbits, the serum concentrations of reproductive hormones including LH and testosterone of ten male rabbits were monitored and measured after a single subcutaneous injection with 1 mg/kg of GHR-106 (low dosage, n=3) or 3 mg/kg of GHR-106 (high dosage, n=3) on day 1, or after no injection (negative control, n=4). Serum testosterone levels were determined and the averages (with standard deviations) were determined from day 1 to day 17, and serum LH levels were determined starting on day 1 and ending on day 13 (with standard deviations) The results of the testosterone profile are found in FIG. 6. The results of the LH profile are found in FIG. 7. Selected statistical analyses and separate comparisons with those of the negative controls for FIG. 6 and FIG. 7 are found in Table 1 and Table 2, respectively.

[11] = system: N1-29 peptide of dog GnRH receptor; details: cited from earlier work
[12] = in vivo; cited from earlier work
[13] = system: N1-29 synthetic oligopeptide of GnRH receptor from rabbit; experiment: Comparative binding ELISA on well-coated N1-29 oligopeptide (rabbit); details: vs unrelated RP215 negative control
Method: as §2, §3

[14] = system: N1-29 peptide of monkey GnRH receptor; details: cited from earlier work
[15] = target: T3, N1-29 synthetic oligopeptide of human GnRH receptor (human); experiment: ELISA on well-coated N1-29 peptide, goat anti-human IgG-alkaline phosphatase, OD 405 nm
T3 construct: Synthetic peptide coated on microwells; also called human N1-29 peptide; N1-29 oligopeptide
T3 peptide: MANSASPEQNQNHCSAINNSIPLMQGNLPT

[16] = single injection day 1, low (1 mg/kg) or high (3 mg/kg) dosage, vs negative control
[17] = male rabbit, single subcutaneous injection of 1 mg/kg or 3 mg/kg
[18] = male rabbits, single injection day 1, low (1 mg/kg) or high (3 mg/kg) dosage, vs negative control

Chain of N1-29 peptide of monkey GnRH receptor (as listed by the source): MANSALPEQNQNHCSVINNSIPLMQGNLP
Chain of N1-29 peptide of cat GnRH receptor (as listed by the source): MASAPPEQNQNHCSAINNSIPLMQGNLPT
Chain of N1-29 peptide of rabbit GnRH receptor (as listed by the source): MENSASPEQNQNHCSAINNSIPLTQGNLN
Chain of N1-29 peptide of dog GnRH receptor (as listed by the source): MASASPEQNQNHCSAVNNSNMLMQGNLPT

Molecule: GHR-106: monoclonal antibody against N1-29 oligopeptide of human GnRH receptor; examples use humanized IgG4 form, heavy chain SEQ ID NO:7, light chain SEQ ID NO:8
- cross-reactivity with N1-29 peptide [1]: cross-reacts
- gene expression changes of ten regulatory genes, compared between GHR-106 and Antide [2]: strong similarity
- t test, LH profile, neg. ctrl to 1 mg/kg (pituitary GnRH receptor [3]; Day 3, 1 mg/kg): 3.93
- t test, estradiol (E2) profile, neg. ctrl to 1 mg/kg (pituitary GnRH receptor [3]; Day 3, 1 mg/kg): 1.179
- t test, LH profile, neg. ctrl to 3 mg/kg (pituitary GnRH receptor [3]; Day 3, 3 mg/kg): 6.348
- t test, estradiol (E2) profile, neg. ctrl to 3 mg/kg (pituitary GnRH receptor [3]; Day 3, 3 mg/kg): 1.125
- t test, LH profile, neg. ctrl to 1 mg/kg (pituitary GnRH receptor [3]; Day 5, 1 mg/kg): 6.556
- t test, estradiol (E2) profile, neg. ctrl to 1 mg/kg (pituitary GnRH receptor [3]; Day 5, 1 mg/kg): 2.893
- t test, LH profile, neg. ctrl to 3 mg/kg (pituitary GnRH receptor [3]; Day 5, 3 mg/kg): 5.114
- t test, estradiol (E2) profile, neg. ctrl to 3 mg/kg (pituitary GnRH receptor [3]; Day 5, 3 mg/kg): 2.039
- t test, LH profile, neg. ctrl to 1 mg/kg (pituitary GnRH receptor [3]; Day 7, 1 mg/kg): 6.018
- t test, estradiol (E2) profile, neg. ctrl to 1 mg/kg (pituitary GnRH receptor [3]; Day 7, 1 mg/kg): 2.807
- t test, LH profile, neg. ctrl to 3 mg/kg (pituitary GnRH receptor [3]; Day 7, 3 mg/kg): 4.126
- t test, estradiol (E2) profile, neg. ctrl to 3 mg/kg (pituitary GnRH receptor [3]; Day 7, 3 mg/kg): 2.45
- t test, LH profile, neg. ctrl to 1 mg/kg (pituitary GnRH receptor [3]; Day 9, 1 mg/kg): 1.1
- t test, estradiol (E2) profile, neg. ctrl to 1 mg/kg (pituitary GnRH receptor [3]; Day 9, 1 mg/kg): 3.048
- t test, LH profile, neg. ctrl to 3 mg/kg (pituitary GnRH receptor [3]; Day 9, 3 mg/kg): 4.126
- t test, estradiol (E2) profile, neg. ctrl to 3 mg/kg (pituitary GnRH receptor [3]; Day 9, 3 mg/kg): 5.087
- serum LH levels (pituitary GnRH receptor [3]; [16]): reversibly suppressed
- serum estradiol (E2) levels (pituitary GnRH receptor [3]; [16]): reversibly suppressed
- duration of low LH levels (pituitary GnRH receptor [4]; 3 mg/kg s.c.): at least one to two
- serum LH (pituitary GnRH receptor [4]; 3 mg/kg s.c., after 24-48 hours, from 3.5 mlU/ml): < 0.5 mlU/ml
- serum LH, stable normal range reached (pituitary GnRH receptor [4]; 3 mg/kg s.c., end of the third week): 2.9-5.0 mlU/ml
- decrease of serum testosterone concentration (pituitary GnRH receptor [4]; 3 mg/kg single injection, first two weeks): more than 80%
- serum testosterone concentration (pituitary GnRH receptor [4]; 3 mg/kg single injection, first two weeks, from 0.95 ng/ml): ≤ 0.1 ng/mL
- LH and testosterone hormone levels (pituitary GnRH receptor [4]; 3 mg/kg, day 30): within the normal range
- degrees of induced apoptosis (human cancer cells): comparable to those of the decapeptide GnRH antagonist, Antide
- binding affinity to N1-29 peptide (ELISA, ΔOD 405 nm) [5]: comparable to one another
- time until hormone levels return to normal ranges (pituitary GnRH receptor [6]): 1-3 weeks
- binding affinity to N1-29 peptide (ELISA, ΔOD 405 nm) [7]: comparable to one another
- ability to detect overexpression of GnRHR (GnRHR): able to detect overexpression of GnRHR
- serum LH (pituitary GnRH receptor [8]; 3 mg/kg single injection, first few days, from 3 mlU/ml): ≤ 1 mlU/ml
- serum E2 concentration (pituitary GnRH receptor [8]; 3 mg/kg single injection, until day 10, from 50 pg/ml): ≤ 20 pg/mL
- serum E2 concentration reached on recovery (pituitary GnRH receptor [8]; 3 mg/kg, after day 18 and 20): 120 pg/mL
- serum LH concentration reached on recovery (pituitary GnRH receptor [8]; 3 mg/kg, after day 18 and 20): 6 mIU/ml
- cross-reactivity with N1-29 peptide [9]: cross-reacts
- decrease of serum LH concentration, of the normal level (pituitary GnRH receptor [10]; [17]): 80 to 90%
- decrease of serum testosterone concentration, of the normal level (pituitary GnRH receptor [10]; [17]): 80 to 90%
- period of decreased serum LH and testosterone (pituitary GnRH receptor [10]; [17]): seven to ten
- time until reproductive hormones returned to normal levels after the initial injection (pituitary GnRH receptor [10]; [17]): approximately two
- t test, LH profile, neg. ctrl to 1 mg/kg (pituitary GnRH receptor [10]; male rabbits, Day 3, 1 mg/kg): 3.579
- t test, testosterone profile, neg. ctrl to 1 mg/kg (pituitary GnRH receptor [10]; male rabbits, Day 3, 1 mg/kg): 2.966
- t test, LH profile, neg. ctrl to 3 mg/kg (pituitary GnRH receptor [10]; male rabbits, Day 3, 3 mg/kg): 1.474
- t test, testosterone profile, neg. ctrl to 3 mg/kg (pituitary GnRH receptor [10]; male rabbits, Day 3, 3 mg/kg): 4.2
- t test, LH profile, neg. ctrl to 1 mg/kg (pituitary GnRH receptor [10]; male rabbits, Day 5, 1 mg/kg): 4.698
- t test, testosterone profile, neg. ctrl to 1 mg/kg (pituitary GnRH receptor [10]; male rabbits, Day 5, 1 mg/kg): 3.353
- t test, LH profile, neg. ctrl to 3 mg/kg (pituitary GnRH receptor [10]; male rabbits, Day 5, 3 mg/kg): 3.596
- t test, testosterone profile, neg. ctrl to 3 mg/kg (pituitary GnRH receptor [10]; male rabbits, Day 5, 3 mg/kg): 3.851
- t test, LH profile, neg. ctrl to 1 mg/kg (pituitary GnRH receptor [10]; male rabbits, Day 7, 1 mg/kg): 4.126
- t test, testosterone profile, neg. ctrl to 1 mg/kg (pituitary GnRH receptor [10]; male rabbits, Day 7, 1 mg/kg): 1.086
- t test, LH profile, neg. ctrl to 3 mg/kg (pituitary GnRH receptor [10]; male rabbits, Day 7, 3 mg/kg): 3.62
- t test, testosterone profile, neg. ctrl to 3 mg/kg (pituitary GnRH receptor [10]; male rabbits, Day 7, 3 mg/kg): 7.396
- t test, LH profile, neg. ctrl to 1 mg/kg (pituitary GnRH receptor [10]; male rabbits, Day 9, 1 mg/kg): 2.936
- t test, testosterone profile, neg. ctrl to 1 mg/kg (pituitary GnRH receptor [10]; male rabbits, Day 9, 1 mg/kg): 0.3439
- t test, LH profile, neg. ctrl to 3 mg/kg (pituitary GnRH receptor [10]; male rabbits, Day 9, 3 mg/kg): 3.56
- t test, testosterone profile, neg. ctrl to 3 mg/kg (pituitary GnRH receptor [10]; male rabbits, Day 9, 3 mg/kg): 0.8405
- serum LH levels (pituitary GnRH receptor [10]; [18]): reversibly suppressed
- serum testosterone levels (pituitary GnRH receptor [10]; [18]): reversibly suppressed
- cross-reactivity with N1-29 peptide [11]: cross-reacts
- half-life [12]: 120 to 504 h
- binding affinity to N1-29 peptide (ELISA, ΔOD 405 nm) [13]: comparable to one another
- cross-reactivity with N1-29 peptide [14]: cross-reacts

B1: GHR-106(hIgG4), humanized IgG4 GHR-106 monoclonal antibody (antibody, V domains shown)
VH: QVQLQESGPGLVKPSETLSLTCTVSGFSLSRYSVHWIRQPPGKGLEWIGMIWGGGSTDYNPSLKSRVTISKDNSKSQVFLKMSSVTAADTAMYYCARGNDGYYSFAYWGQGTLVTVSS
VL: DIVMTQSPDSLAVSLGERATINCKSSQSLLNSRTRKNYLAWYQQKPGQSPKLLIYWASTRESGVPDRFSGSGSGTDFTLTISSLQAEDVAVYYCKQSYNLYTFGQGTKLEIKR
notes: Humanized IgG4
- binding result [15]: binds

— patent US20240199754A1 (VANCOUVER BIOTECH LTD., priority 2021, published 2024)
